Data reported in US5210027A, “DNA encoding novel antimicrobial polypeptide and methods for obtaining such polypeptide” (INCYTE Pharmaceuticals, Inc., priority 1991, dated 1993).

Legend:
Format in all cases: cell-based
[1] = tested on: Candida albicans (clinical isolate); assay: Microbicidal assay (colony forming units) against Candida albicans; details: in vitro
Description: (§1) Microbicidal activity was routinely tested against Escherichia coli K12 (MC4100), Streptococcus faecalis (ATCC Accession No. 29212) and Candida albicans (clinical isolate). Organisms from a single colony on agar plates were inoculated into liquid medium and cultured overnight at 37° C. Aliquots of the overnight culture were inoculated into fresh nutrient broth and grown to mid-exponential phase. Cultures were then diluted into the test medium to the appropriate concentration.
Samples from reverse-phase liquid chromatography to be tested for microbicidal activity were dried by vacuum centrifugation in Immulon I microtire plates in the presence of 50 μl 0.1% BSA. Dried samples were resuspended in 0.1% acetic acid and returned to dryness by vacuum centrifugation. Samples were then resuspended in assay buffer and after appropriate dilutions of samples had been made, test organisms were added to the wells and incubation at 37° C. was carried out for 30 to 60 minutes. Killing of all organisms was carried out in 20 mM phosphate pH 6, 0.25M glucose and 0.02% Tween 20 unless otherwise indicated. […] Colony forming units were determined manually or by automated counting after overnight incubation at 37° C.

[2] = tested on: Escherichia coli K12 (MC4100); assay: Microbicidal assay (colony forming units) against Escherichia coli
Description: as §1
(§2) Samples from reverse-phase liquid chromatography to be tested for microbicidal activity were dried by vacuum centrifugation in Immulon I microtire plates in the presence of 50 μl 0.1% BSA. Dried samples were resuspended in 0.1% acetic acid and returned to dryness by vacuum centrifugation. Samples were then resuspended in assay buffer and after appropriate dilutions of samples had been made, test organisms were added to the wells and incubation at 37° C. was carried out for 30 to 60 minutes. Killing of all organisms was carried out in 20 mM phosphate pH 6, 0.25M glucose and 0.02% Tween 20 unless otherwise indicated. A volume of the assay mixture corresponding to 200-300 organisms in the control assays were plated onto trypticase soy agar plates (Escherichia coli and Streptococcus faecalis) or spread onto Sabouraud dextrose agar plates (Candida albicans). Colony forming units were determined manually or by automated counting after overnight incubation at 37° C.

[3] = tested on: Streptococcus faecalis (ATCC Accession No. 29212); assay: Microbicidal assay (colony forming units) against Streptococcus faecalis
Description: as §1, §2

[4] = in vitro, 20 mM phosphate pH 6, 0.25M glucose, 0.02% Tween 20, 37° C., 30 to 60 minutes, relative to Peak 1 (defensins)

val-cys-ser-cys-arg-leu-val-phe-cys-arg-arg-thr-glu-leu-arg-val-gly-asn-cys-leu-ile-gly-gly-val-ser-phe-thr-tyr-cys-cys-thr-arg-val [Peak 2]
microbicidal activity compared with a mixture of previously described defensins [1]: significantly more active | microbicidal activity, fold more active than Peak 1 ([1]; 20 mM phosphate pH 6, 0.25M glucose, 0.02% Tween 20, 37° C., 30 to 60 minutes, relative to Peak 1 (defensins)): about 5 fold | effect of detergents Tween 20 and NP40 on microbicidal activity ([2]; against bacteria, FIG. 7): enhanced | microbicidal activity compared with a mixture of previously described defensins ([2]; in vitro): significantly more active | microbicidal activity, fold more active than Peak 1 [2, 4]: 15-30 fold | effect of detergents Tween 20 and NP40 on microbicidal activity ([3]; against bacteria, FIG. 7): enhanced | microbicidal activity compared with a mixture of previously described defensins ([3]; in vitro): significantly more active | concentration required to reach the indicated levels of killing (50% or 90%), fold less than for Peak 1 [3, 4]: about 100 fold
